Legend:
Assay in all cases: Histone peptide microarray
Format in all cases: binding, human
KDM4C (TTP) = conditions: GST-tagged KDM4C (TTP = Tandem Tudor domain + PHD); sheet Array Heatmap; each array performed twice, total n = 4
Description: (§1) To more comprehensively define the histone interactions of the 31 PHD readers identified from the domain microarray analyses, we probed each on an alternate microarray platform containing a library of 293 synthetic histone peptides with single or combinatorial PTMs (Additional file 2: Figure S4 and Additional file 3: Table S2).
(§2) The 31 GST-tagged PHD readers identified in the PHD finger domain array were expressed and purified as previously. Histone peptide arrays and peptide pulldown assays were conducted as recently described (specifically, the optimized protocol from Petell et al. for the former).
(§3) Supplementary file 13072_2020_328_MOESM3_ESM.xlsx: Additional file 3: Table S2. […] Excel Tab Peptide List is a compiled list of the entire 293 histone peptide library with amino acid sequence ranges. […] Each number corresponds to the peptide number designated in Peptide List. Excel Tab Average Signals is a compiled set of binding data: chromatin reader at 0.5 μM vs. entire 293 peptide library. Data is presented as the average and standard deviation of 4 replicates. The average signals are colored to indicate signal intensity with green being strong and white being weak/low. […] Key: red= stronger relative binding; blue = weaker relative binding. Excel Tab Array info summary is a table summarizing the domains, sequence coverage, array signal range, and noise for each of the GST-tagged readers assayed on the peptide microarrays.

TAF3 = conditions: GST-tagged TAF3; sheet Array Heatmap; each array performed twice, total n = 4
Description: as §1, §2, §3

PHF2 = conditions: GST-tagged PHF2; sheet Array Heatmap; each array performed twice, total n = 4
Description: as §1, §2, §3

ING4 = conditions: GST-tagged ING4; sheet Array Heatmap; each array performed twice, total n = 4
Description: as §1, §2, §3

ING2 = conditions: GST-tagged ING2; sheet Array Heatmap; each array performed twice, total n = 4
Description: as §1, §2, §3

KDM7A = conditions: GST-tagged KDM7A; sheet Array Heatmap; each array performed twice, total n = 4
Description: as §1, §2, §3

BPTF (PB) = conditions: GST-tagged BPTF (PB = PHD + Bromodomain); sheet Array Heatmap; each array performed twice, total n = 4
Description: as §1, §2, §3

MORC3 (CW) = conditions: GST-tagged MORC3 (CW = CW-type Zn-finger); sheet Array Heatmap; each array performed twice, total n = 4
Description: as §1, §2, §3

PHRF1 (RP) = conditions: GST-tagged PHRF1 (RP); sheet Array Heatmap; each array performed twice, total n = 4
Description: as §1, §2, §3

DIDO1 = conditions: GST-tagged DIDO1; sheet Array Heatmap; each array performed twice, total n = 4
Description: as §1, §2, §3

ING3 = conditions: GST-tagged ING3; sheet Array Heatmap; each array performed twice, total n = 4
Description: as §1, §2, §3

PHF8 = conditions: GST-tagged PHF8; sheet Array Heatmap; each array performed twice, total n = 4
Description: as §1, §2, §3

ING5 = conditions: GST-tagged ING5; sheet Array Heatmap; each array performed twice, total n = 4
Description: as §1, §2, §3

KDM5B (1) = conditions: GST-tagged KDM5B (1); sheet Array Heatmap; each array performed twice, total n = 4
Description: as §1, §2, §3

KDM5A (3) = conditions: GST-tagged KDM5A (3); sheet Array Heatmap; each array performed twice, total n = 4
Description: as §1, §2, §3

KDM5A (1) = conditions: GST-tagged KDM5A (1); sheet Array Heatmap; each array performed twice, total n = 4
Description: as §1, §2, §3

CHD5 (PPCC) = conditions: GST-tagged CHD5 (PPCC = Dual PHD + Dual Chromodomain); sheet Array Heatmap; each array performed twice, total n = 4
Description: as §1, §2, §3

MLL5 = conditions: GST-tagged MLL5; sheet Array Heatmap; each array performed twice, total n = 4
Description: as §1, §2, §3

TRIM66 (PB) = conditions: GST-tagged TRIM66 (PB = PHD + Bromodomain); sheet Array Heatmap; each array performed twice, total n = 4
Description: as §1, §2, §3

RAG2 = conditions: GST-tagged RAG2; sheet Array Heatmap; each array performed twice, total n = 4
Description: as §1, §2, §3

AIRE (PP) = conditions: GST-tagged AIRE (PP); sheet Array Heatmap; each array performed twice, total n = 4
Description: as §1, §2, §3

KDM5B (3) = conditions: GST-tagged KDM5B (3); sheet Array Heatmap; each array performed twice, total n = 4
Description: as §1, §2, §3

ING1 = conditions: GST-tagged ING1; sheet Array Heatmap; each array performed twice, total n = 4
Description: as §1, §2, §3

PHF21A = conditions: GST-tagged PHF21A; sheet Array Heatmap; each array performed twice, total n = 4
Description: as §1, §2, §3

BAZ2B = conditions: GST-tagged BAZ2B; sheet Array Heatmap; each array performed twice, total n = 4
Description: as §1, §2, §3

PHF23 = conditions: GST-tagged PHF23; sheet Array Heatmap; each array performed twice, total n = 4
Description: as §1, §2, §3

DPF2 (PPC2W2) = conditions: GST-tagged DPF2 (PPC2W2 = Dual PHD + C2W2-type Zn-finger); sheet Array Heatmap; each array performed twice, total n = 4
Description: as §1, §2, §3

PHF13 = conditions: GST-tagged PHF13; sheet Array Heatmap; each array performed twice, total n = 4
Description: as §1, §2, §3

CHD5 (PCC) = conditions: GST-tagged CHD5 (PCC = PHD + Dual Chromodomain); sheet Array Heatmap; each array performed twice, total n = 4
Description: as §1, §2, §3

CHD4 (PPCC) = conditions: GST-tagged CHD4 (PPCC = Dual PHD + Dual Chromodomain); sheet Array Heatmap; each array performed twice, total n = 4
Description: as §1, §2, §3

SP140L = conditions: GST-tagged SP140L; sheet Array Heatmap; each array performed twice, total n = 4
Description: as §1, §2, §3

Substance | Array Heatmap signal (histone peptide microarray) (KDM4C (TTP)) | Array Heatmap signal (histone peptide microarray) (TAF3) | Array Heatmap signal (histone peptide microarray) (PHF2) | Array Heatmap signal (histone peptide microarray) (ING4) | Array Heatmap signal (histone peptide microarray) (ING2) | Array Heatmap signal (histone peptide microarray) (KDM7A) | Array Heatmap signal (histone peptide microarray) (BPTF (PB)) | Array Heatmap signal (histone peptide microarray) (MORC3 (CW)) | Array Heatmap signal (histone peptide microarray) (PHRF1 (RP)) | Array Heatmap signal (histone peptide microarray) (DIDO1) | Array Heatmap signal (histone peptide microarray) (ING3) | Array Heatmap signal (histone peptide microarray) (PHF8) | Array Heatmap signal (histone peptide microarray) (ING5) | Array Heatmap signal (histone peptide microarray) (KDM5B (1)) | Array Heatmap signal (histone peptide microarray) (KDM5A (3)) | Array Heatmap signal (histone peptide microarray) (KDM5A (1)) | Array Heatmap signal (histone peptide microarray) (MLL5) | Array Heatmap signal (histone peptide microarray) (TRIM66 (PB)) | Array Heatmap signal (histone peptide microarray) (RAG2) | Array Heatmap signal (histone peptide microarray) (AIRE (PP)) | other results
H3K4me1 + K9ac + K14ac + K18ac: H3 1-20 | 0.5283 | 0.2961 | 0.5275 | 0.4842 | 0.6379 | 0.3735 | 0.3783 | 0.6558 | 0.6901 | 0.6756 | 0.5358 | 0.4393 | 0.3909 | 0.6974 | 0.582 | 0.5061 | 0.5474 | 0.6139 | 0.2881 | 0.4902 | Array Heatmap signal (histone peptide microarray) (CHD5 (PPCC)): 0.5902; Array Heatmap signal (histone peptide microarray) (KDM5B (3)): 0.5937; Array Heatmap signal (histone peptide microarray) (ING1): 0.5616; Array Heatmap signal (histone peptide microarray) (PHF21A): 0.4842; Array Heatmap signal (histone peptide microarray) (BAZ2B): 0.6125; Array Heatmap signal (histone peptide microarray) (PHF23): 0.5995; Array Heatmap signal (histone peptide microarray) (DPF2 (PPC2W2)): 0.8362; Array Heatmap signal (histone peptide microarray) (PHF13): 0.6456; Array Heatmap signal (histone peptide microarray) (CHD5 (PCC)): 0.872; Array Heatmap signal (histone peptide microarray) (CHD4 (PPCC)): 0.5742
H3K4me3 + S10p: H3 1-20 | 0.6416 | 0.4497 | 0.6926 | 0.5113 | 0.7902 | 0.6944 | 0.4763 | 0.8974 | 0.4961 | 0.8088 | 0.5974 | 0.7298 | 0.452 | 0.7367 | 0.9343 | 0.4961 | 0.8699 | 0.6387 | 0.5128 | 0.4865 | Array Heatmap signal (histone peptide microarray) (SP140L): 0.3516; Array Heatmap signal (histone peptide microarray) (KDM5B (3)): 0.6326; Array Heatmap signal (histone peptide microarray) (ING1): 0.7399; Array Heatmap signal (histone peptide microarray) (PHF21A): 0.4924; Array Heatmap signal (histone peptide microarray) (BAZ2B): 0.4888; Array Heatmap signal (histone peptide microarray) (PHF23): 0.7051; Array Heatmap signal (histone peptide microarray) (DPF2 (PPC2W2)): 0.6728; Array Heatmap signal (histone peptide microarray) (PHF13): 0.6968; Array Heatmap signal (histone peptide microarray) (CHD5 (PCC)): 0.823; Array Heatmap signal (histone peptide microarray) (CHD4 (PPCC)): 0.5979

Source: publication PMC6979384, “Characterization of the plant homeodomain (PHD) reader family for their histone tail interactions” (Epigenetics & Chromatin, 2020)
